In brackets after ≈: the same amount, converted by molar mass. Entries after “also recorded” stand apart in the source; their conditions may differ.
How the values were obtained:
[1] = test system: C. difficile 630; test: C. difficile mouse infection model; assay type: in vivo, C57BL/6 mice; conditions: for rate of C. difficile clearance from feces: halicin 15 mg/kg, metronidazole 50 mg/kg, vehicle 10% PEG 300
[2] = test system: E. coli MC1061; test: DiSC3(5) assay, E. coli; assay type: cell-based; conditions: early-log cells in buffer
[3] = test system: ciprofloxacin-resistant gyrA S83A mutant of BW25113; assay type: cell-based, E. coli
[4] = test system: E. coli; assay type: cell-based
[5] = test system: E. coli strains harboring plasmid-borne antibiotic-resistance genes; assay type: cell-based
[6] = test system: E. coli, S. aureus, Klebsiella pneumoniae, A. baumannii, and P. aeruginosa; test: ZINC15 compound validation, growth inhibition against a range of pathogens; assay type: cell-based; conditions: LB media
[7] = test system: E. coli persister cells; test: Killing of E. coli persister cells after ampicillin treatment; assay type: cell-based; conditions: cells that remained after treatment with ampicillin
[8] = test system: daptomycin-resistant RN4220 strain (Δdsp1); assay type: cell-based, S. aureus
[9] = test system: E. coli BW25113; test: Evolution of resistance (serial passage, spontaneous suppressor generation); assay type: cell-based; conditions: 30 days serial passaging in liquid media; seven days on solid media
[10] = test system: E. coli in a metabolically repressed, antibiotic-tolerant state; test: Bacterial cell killing assay, E. coli in nutrient-free buffer (PBS); assay type: cell-based
[11] = test system: E. coli; test: Growth inhibition checkerboards of halicin in combination; assay type: cell-based
[12] = test system: E. coli; assay type: cell-based; remark: listed apart in the source
[13] = test system: A. baumannii clinical isolates; test: Growth inhibition of multidrug-resistant clinical isolates, A. baumannii; assay type: cell-based; conditions: 36 multidrug-resistant clinical isolates
[14] = test system: MRSA; test: Activity against MRSA; assay type: cell-based, Staphylococcus aureus
[15] = test system: Carbapenem-resistant Enterobacteriaceae (CRE) clinical isolates; assay type: cell-based
[16] = test system: E. coli; test: Growth inhibition of E. coli in pH-adjusted or bicarbonate-supplemented media
[17] = test system: M. tuberculosis; test: Bacterial cell killing assay, M. tuberculosis in 7H9 media; assay type: cell-based, Mycobacterium tuberculosis; conditions: 16 μg/ml
[18] = test system: E. coli BW25113; test: Growth inhibition assay against E. coli; assay type: cell-based; conditions: Escherichia coli, rich growth conditions, read-out: minimum inhibitory concentration (MIC)
[19] = test system: M. tuberculosis H37Rv; test: Growth inhibition of M. tuberculosis; assay type: cell-based; conditions: Mycobacterium tuberculosis, 7H9 medium, stated as 1×MIC
[20] = test system: A. baumannii 288 cells; test: Bacterial cell killing assay, A. baumannii CDC 288 in PBS; assay type: cell-based; conditions: metabolically repressed
[21] = test system: A. baumannii CDC 288; test: A. baumannii mouse wound infection model; assay type: in vivo, Balb/c mice; conditions: halicin 0.5% w/v topical, 25 hours post-infection
[22] = test system: Pseudomonas aeruginosa clinical isolates; test: Growth inhibition of multidrug-resistant clinical isolates, P. aeruginosa; assay type: cell-based; conditions: 36 multidrug-resistant clinical isolates
[23] = test system: ΔnfsAΔnfsB E. coli; assay type: cell-based; conditions: deletion of nfsA and nfsB
[24] = test system: S. aureus USA300; test: Growth inhibition of S. aureus in pH-adjusted media; assay type: cell-based, Staphylococcus aureus
[25] = test system: A. baumannii CDC 288; test: Growth inhibition of pan-resistant A. baumannii CDC 288 in vitro; assay type: cell-based; conditions: Acinetobacter baumannii, CDC288, A. baumannii strain 288 (CDC)
[26] = test system: C. difficile strain 630; test: Growth inhibition of C. difficile 630 in vitro; assay type: cell-based; conditions: Clostridioides difficile; C. difficile strain 630, in vitro

Cc1ncc([N+](=O)[O-])n1CCO [Metronidazole, metronidazole, reference compound]
rate of C. difficile clearance from feces [1]: did not result in enhanced rates of clearance relative to vehicle controls

polymyxin B [reference compound]
DiSC3(5) fluorescence change, E. coli [2]: corresponding increase in fluorescence

C[C@H]1CN(c2cc3c(cc2[N+](=O)[O-])c(=O)c(C(=O)O)cn3C2CC2)CCN1N=Nc1ccc(S(N)(=O)=O)cc1 [ZINC000100032716, 1-Cyclopropyl-7-[(3S)-3-methyl-4-[(4-sulfamoylphenyl)diazenyl]piperazin-1-yl]-6-nitro-4-oxoquinoline-3-carboxylic acid]
impact of chromosomal resistance [3]: only weakly impacted
smaller change in MIC between gyrA mutant and wildtype E. coli relative to ciprofloxacin ([3]; gyrA S83A vs BW25113): 4 fold
bactericidal activity against E. coli [4]: bactericidal activity
activity against E. coli harboring resistance determinants [5]: overcome an array of common resistance determinants
impact of plasmid-borne fluoroquinolone resistance on MIC [5]: only weakly impacted; also recorded: minor increase in MIC
spectrum of growth inhibitory activity [6]: potent broad-spectrum activity

Nc1nnc(Sc2ncc([N+](=O)[O-])s2)s1 [halicin, 5-[(5-nitro-1,3-thiazol-2-yl)sulfanyl]-1,3,4-thiadiazol-2-amine]
eradication of E. coli persister cells [7]: able to eradicate E. coli persister cells
mice sterilized after 72 hours of treatment ([1]; 15 mg/kg gavage every 24 hours): 3 out of 4
mice sterilized after 96 hours of treatment ([1]; 15 mg/kg gavage every 24 hours): 4 out of 4
mice free of infection at 96 hours after treatment ([1]; 15 mg/kg, n=4): 100%
rate of C. difficile clearance from feces [1]: clearance from feces at a greater rate than vehicle or the antibiotic metronidazole
cross-resistance in daptomycin-resistant S. aureus [8]: did not confer cross-resistance to halicin
evolution of resistant mutants [9]: not possible to isolate spontaneous suppressor mutants
bactericidal activity against metabolically repressed, antibiotic-tolerant E. coli [10]: retained bactericidal activity against tolerant cells
interaction with kanamycin ([11]; checkerboard): synergized with kanamycin
interaction with tetracycline ([11]; checkerboard): antagonized the activity of tetracycline
interaction with Fe^3+ (FeCl3) ([11]; increasing concentrations of environmental Fe^3+): enhanced potency of halicin
bacterial cell killing, metabolically active E. coli [4]: bacterial cell killing was observed
expression of cell motility genes [12]: rapid downregulation of genes involved in cell motility
expression of iron homeostasis genes ([12]; sub-lethal concentrations): upregulation of genes required for iron homeostasis
growth inhibition of A. baumannii clinical isolates [13]: strong growth inhibitory activity
DiSC3(5) fluorescence change, E. coli [2]: immediate decrease in DiSC3(5) fluorescence in a dose-dependent manner
activity against MRSA [14]: potent activity
growth inhibition of CRE clinical isolates [15]: strong growth inhibitory activity
potency as a function of media pH, E. coli [16]: halicin potency decreased as pH increased
effect of sodium bicarbonate on growth inhibition ([16]; 25 mM sodium bicarbonate in growth medium): antagonized the action of halicin
bactericidal activity against M. tuberculosis [17]: rapidly bactericidal
MIC [18]: 2 µg/mL (≈ 7.65 µM)
MIC [19]: 16 µg/mL (≈ 61.2 µM)
killing of A. baumannii 288 in antibiotic-tolerant conditions [20]: able to sterilize A. baumannii 288 cells
bacterial load of wound tissue, one mouse [21]: ≈ 10^5 CFU/g
bacterial load of wound tissue, 5 of the 6 mice ([21]; below the limit of detection): less than 10^3 CFU/g
growth inhibition of P. aeruginosa clinical isolates [22]: lack of efficacy
change in MIC in nitrofurantoin-resistant E. coli [23]: did not change
potency as a function of media pH, Staphylococcus aureus [24]: halicin potency decreased as pH increased
MIC [25]: 1 µg/mL (≈ 3.83 µM)
change in MIC in the presence of resistance gene relative to antibiotic-susceptible parent strains [5]: No change in halicin MIC
MIC [26]: 0.5 µg/mL (≈ 1.91 µM)

CC1(C)S[C@@H]2[C@H](NC(=O)[C@H](N)c3ccccc3)C(=O)N2[C@H]1C(=O)O [ampicillin, reference compound]
bactericidal activity against metabolically repressed, antibiotic-tolerant E. coli [10]: unable to eradicate E. coli
bacterial cell killing, metabolically active E. coli [4]: efficacy against metabolically active cells

From US12469580B2, “In silico discovery of effective antimicrobials” (MASSACHUSETTS INSTITUTE OF TECHOLOGY, priority 2019, dated 2025)
